Patent publication US20170045513A1, “METHODS OF DIAGNOSING CELIAC DISEASE USING IP-10” (ImmusanT, Inc., priority 2014, published 2017)
Non-standard residues stand in square brackets, D forms with d. pGlu = O=C1CC[C@@H](C(=O)O)N1

Test system: gluten-reactive T cells
Assay: 96-well plate whole blood cytokine release, IP-10 by MAGPIX multiplex bead assay
Assay type: cell-based, human
Settings: for Percent of maximal response to individual gluten peptides, IP-10: after oral gluten challenge; for IP-10 WB MAGPIX % max Mean: n = 10, blood after oral gluten challenge, individual peptides 5 μM (Peptide 2* of P14, Pepscan: 10 μg/mL (5.45 μM))

Substance: (pE)QPFPQPEQPFSQQ-amide ([pGlu]QPFPQPEQPFSQQ-NH2; SMILES NC(=O)CC[C@H](NC(=O)[C@H](CCC(N)=O)NC(=O)[C@H](CO)NC(=O)[C@H](Cc1ccccc1)NC(=O)[C@@H]1CCCN1C(=O)[C@H](CCC(N)=O)NC(=O)[C@H](CCC(=O)O)NC(=O)[C@@H]1CCCN1C(=O)[C@H](CCC(N)=O)NC(=O)[C@@H]1CCCN1C(=O)[C@H](Cc1ccccc1)NC(=O)[C@@H]1CCCN1C(=O)[C@H](CCC(N)=O)NC(=O)[C@@H]1CCC(=O)N1)C(N)=O) [Peptide 7]
- Percent of maximal response to individual gluten peptides, IP-10 (Subject 1, Max. 2331 pg/mL): 0 % of max
- Percent of maximal response to individual gluten peptides, IP-10 (Subject 2, Max. 3646 pg/mL): 7 % of max
- Percent of maximal response to individual gluten peptides, IP-10 (Subject 3, Max. 9492 pg/mL): 60 % of max
- Percent of maximal response to individual gluten peptides, IP-10 (Subject 4, Max. 9463 pg/mL): 20 % of max
- Percent of maximal response to individual gluten peptides, IP-10 (Subject 5, Max. 9336 pg/mL): 12 % of max
- Percent of maximal response to individual gluten peptides, IP-10 (Subject 6, Max. 5863 pg/mL): 0 % of max
- Percent of maximal response to individual gluten peptides, IP-10 (Subject 7, Max. 2330 pg/mL): 0 % of max
- Percent of maximal response to individual gluten peptides, IP-10 (Subject 8, Max. 4019 pg/mL): 3 % of max
- Percent of maximal response to individual gluten peptides, IP-10 (Subject 9, Max. 8349 pg/mL): 17 % of max
- Percent of maximal response to individual gluten peptides, IP-10 (Subject 10, Max. 8922 pg/mL): 3 % of max
- IP-10 WB MAGPIX % max Mean: 12 (12) % max

Substance: (pE)QPFPQPEQPIPVQPEQS-amide ([pGlu]QPFPQPEQPIPVQPEQS-NH2; SMILES CC[C@H](C)[C@H](NC(=O)[C@@H]1CCCN1C(=O)[C@H](CCC(N)=O)NC(=O)[C@H](CCC(=O)O)NC(=O)[C@@H]1CCCN1C(=O)[C@H](CCC(N)=O)NC(=O)[C@@H]1CCCN1C(=O)[C@H](Cc1ccccc1)NC(=O)[C@@H]1CCCN1C(=O)[C@H](CCC(N)=O)NC(=O)[C@@H]1CCC(=O)N1)C(=O)N1CCC[C@H]1C(=O)N[C@H](C(=O)N[C@@H](CCC(N)=O)C(=O)N1CCC[C@H]1C(=O)N[C@@H](CCC(=O)O)C(=O)N[C@@H](CCC(N)=O)C(=O)N[C@@H](CO)C(N)=O)C(C)C) [Peptide 4]
- Percent of maximal response to individual gluten peptides, IP-10 (Subject 1, Max. 2331 pg/mL): 18 % of max
- Percent of maximal response to individual gluten peptides, IP-10 (Subject 2, Max. 3646 pg/mL): 19 % of max
- Percent of maximal response to individual gluten peptides, IP-10 (Subject 3, Max. 9492 pg/mL): ≥ 100 % of max
- Percent of maximal response to individual gluten peptides, IP-10 (Subject 4, Max. 9463 pg/mL): ≥ 100 % of max
- Percent of maximal response to individual gluten peptides, IP-10 (Subject 5, Max. 9336 pg/mL): 51 % of max
- Percent of maximal response to individual gluten peptides, IP-10 (Subject 6, Max. 5863 pg/mL): 2 % of max
- Percent of maximal response to individual gluten peptides, IP-10 (Subject 7, Max. 2330 pg/mL): 3 % of max
- Percent of maximal response to individual gluten peptides, IP-10 (Subject 8, Max. 4019 pg/mL): 7 % of max
- Percent of maximal response to individual gluten peptides, IP-10 (Subject 9, Max. 8349 pg/mL): 48 % of max
- Percent of maximal response to individual gluten peptides, IP-10 (Subject 10, Max. 8922 pg/mL): 30 % of max
- IP-10 WB MAGPIX % max Mean: 38 % max

Substance: (pE)QPFPQPEQPTPIQPEQP-amide ([pGlu]QPFPQPEQPTPIQPEQP-NH2; SMILES CC[C@H](C)[C@H](NC(=O)[C@@H]1CCCN1C(=O)[C@@H](NC(=O)[C@@H]1CCCN1C(=O)[C@H](CCC(N)=O)NC(=O)[C@H](CCC(=O)O)NC(=O)[C@@H]1CCCN1C(=O)[C@H](CCC(N)=O)NC(=O)[C@@H]1CCCN1C(=O)[C@H](Cc1ccccc1)NC(=O)[C@@H]1CCCN1C(=O)[C@H](CCC(N)=O)NC(=O)[C@@H]1CCC(=O)N1)[C@@H](C)O)C(=O)N[C@@H](CCC(N)=O)C(=O)N1CCC[C@H]1C(=O)N[C@@H](CCC(=O)O)C(=O)N[C@@H](CCC(N)=O)C(=O)N1CCC[C@H]1C(N)=O) [Peptide 5]
- Percent of maximal response to individual gluten peptides, IP-10 (Subject 1, Max. 2331 pg/mL): 0 % of max
- Percent of maximal response to individual gluten peptides, IP-10 (Subject 2, Max. 3646 pg/mL): 13 % of max
- Percent of maximal response to individual gluten peptides, IP-10 (Subject 3, Max. 9492 pg/mL): ≥ 100 % of max
- Percent of maximal response to individual gluten peptides, IP-10 (Subject 4, Max. 9463 pg/mL): 46 % of max
- Percent of maximal response to individual gluten peptides, IP-10 (Subject 5, Max. 9336 pg/mL): 13 % of max
- Percent of maximal response to individual gluten peptides, IP-10 (Subject 6, Max. 5863 pg/mL): 1 % of max
- Percent of maximal response to individual gluten peptides, IP-10 (Subject 7, Max. 2330 pg/mL): 2 % of max
- Percent of maximal response to individual gluten peptides, IP-10 (Subject 8, Max. 4019 pg/mL): 4 % of max
- Percent of maximal response to individual gluten peptides, IP-10 (Subject 9, Max. 8349 pg/mL): 10 % of max
- Percent of maximal response to individual gluten peptides, IP-10 (Subject 10, Max. 8922 pg/mL): 60 % of max
- IP-10 WB MAGPIX % max Mean: 25 % max

Substance: (pE)QPPFSEQEQPVLPQ-amide (N-terminal pyroglutamate; C-terminal amide) [Peptide 13]
- Percent of maximal response to individual gluten peptides, IP-10 (Subject 1, Max. 2331 pg/mL): 0 % of max
- Percent of maximal response to individual gluten peptides, IP-10 (Subject 2, Max. 3646 pg/mL): 16 % of max
- Percent of maximal response to individual gluten peptides, IP-10 (Subject 3, Max. 9492 pg/mL): 70 % of max
- Percent of maximal response to individual gluten peptides, IP-10 (Subject 4, Max. 9463 pg/mL): 0 % of max
- Percent of maximal response to individual gluten peptides, IP-10 (Subject 5, Max. 9336 pg/mL): 6 % of max
- Percent of maximal response to individual gluten peptides, IP-10 (Subject 6, Max. 5863 pg/mL): 5 % of max
- Percent of maximal response to individual gluten peptides, IP-10 (Subject 7, Max. 2330 pg/mL): 0 % of max
- Percent of maximal response to individual gluten peptides, IP-10 (Subject 8, Max. 4019 pg/mL): 0 % of max
- Percent of maximal response to individual gluten peptides, IP-10 (Subject 9, Max. 8349 pg/mL): 0 % of max
- Percent of maximal response to individual gluten peptides, IP-10 (Subject 10, Max. 8922 pg/mL): 0 % of max
- IP-10 WB MAGPIX % max Mean: 10 % max

Substance: (pE)QPYPQPELPYPQPQ-amide ([pGlu]QPYPQPELPYPQPQ-NH2; SMILES CC(C)C[C@H](NC(=O)[C@H](CCC(=O)O)NC(=O)[C@@H]1CCCN1C(=O)[C@H](CCC(N)=O)NC(=O)[C@@H]1CCCN1C(=O)[C@H](Cc1ccc(O)cc1)NC(=O)[C@@H]1CCCN1C(=O)[C@H](CCC(N)=O)NC(=O)[C@@H]1CCC(=O)N1)C(=O)N1CCC[C@H]1C(=O)N[C@@H](Cc1ccc(O)cc1)C(=O)N1CCC[C@H]1C(=O)N[C@@H](CCC(N)=O)C(=O)N1CCC[C@H]1C(=O)N[C@@H](CCC(N)=O)C(N)=O) [Peptide 15]
- Percent of maximal response to individual gluten peptides, IP-10 (Subject 1, Max. 2331 pg/mL): 4 % of max
- Percent of maximal response to individual gluten peptides, IP-10 (Subject 2, Max. 3646 pg/mL): 30 % of max
- Percent of maximal response to individual gluten peptides, IP-10 (Subject 3, Max. 9492 pg/mL): ≥ 100 % of max
- Percent of maximal response to individual gluten peptides, IP-10 (Subject 4, Max. 9463 pg/mL): 67 % of max
- Percent of maximal response to individual gluten peptides, IP-10 (Subject 5, Max. 9336 pg/mL): 33 % of max
- Percent of maximal response to individual gluten peptides, IP-10 (Subject 6, Max. 5863 pg/mL): 0 % of max
- Percent of maximal response to individual gluten peptides, IP-10 (Subject 7, Max. 2330 pg/mL): 6 % of max
- Percent of maximal response to individual gluten peptides, IP-10 (Subject 8, Max. 4019 pg/mL): 5 % of max
- Percent of maximal response to individual gluten peptides, IP-10 (Subject 9, Max. 8349 pg/mL): 69 % of max
- Percent of maximal response to individual gluten peptides, IP-10 (Subject 10, Max. 8922 pg/mL): 17 % of max
- IP-10 WB MAGPIX % max Mean: 33 % max

Substance: (pE)SGEGSFQPSQENPQ-amide ([pGlu]SGEGSFQPSQENPQ-NH2; SMILES NC(=O)CC[C@H](NC(=O)[C@@H]1CCCN1C(=O)[C@H](CC(N)=O)NC(=O)[C@H](CCC(=O)O)NC(=O)[C@H](CCC(N)=O)NC(=O)[C@H](CO)NC(=O)[C@@H]1CCCN1C(=O)[C@H](CCC(N)=O)NC(=O)[C@H](Cc1ccccc1)NC(=O)[C@H](CO)NC(=O)CNC(=O)[C@H](CCC(=O)O)NC(=O)CNC(=O)[C@H](CO)NC(=O)[C@@H]1CCC(=O)N1)C(N)=O) [Peptide 9]
- Percent of maximal response to individual gluten peptides, IP-10 (Subject 1, Max. 2331 pg/mL): 0 % of max
- Percent of maximal response to individual gluten peptides, IP-10 (Subject 2, Max. 3646 pg/mL): 0 % of max
- Percent of maximal response to individual gluten peptides, IP-10 (Subject 3, Max. 9492 pg/mL): 0 % of max
- Percent of maximal response to individual gluten peptides, IP-10 (Subject 4, Max. 9463 pg/mL): 0 % of max
- Percent of maximal response to individual gluten peptides, IP-10 (Subject 5, Max. 9336 pg/mL): 0 % of max
- Percent of maximal response to individual gluten peptides, IP-10 (Subject 6, Max. 5863 pg/mL): 0 % of max
- Percent of maximal response to individual gluten peptides, IP-10 (Subject 7, Max. 2330 pg/mL): 0 % of max
- Percent of maximal response to individual gluten peptides, IP-10 (Subject 8, Max. 4019 pg/mL): 0 % of max
- Percent of maximal response to individual gluten peptides, IP-10 (Subject 9, Max. 8349 pg/mL): 0 % of max
- Percent of maximal response to individual gluten peptides, IP-10 (Subject 10, Max. 8922 pg/mL): 0 % of max
- IP-10 WB MAGPIX % max Mean: 0 % max
